Test results published in patent US20210002725A1, “METHODS FOR THE DIAGNOSIS OF METABOLIC DISORDERS USING EPIMETABOLIC SHIFTERS, MULTIDIMENSIONAL INTRACELLULAR MOLECULES, OR ENVIRONMENTAL INFLUENCES” (Berg LLC, priority 2009, published 2021).
Entries after “also recorded” stand apart in the source; their conditions may differ.

Assays:
[1] = tested on: HepG2 (liver cancer) cells; assay: Real-time PCR Diabetes Array; format: cell-based; conditions: for genes regulated in the Diabetes Arrays: 100 μM
Method: The treatment was initiated on 1×10^5 cells per well, following the procedure utilized in the PaCa2 cells (above, Examples 9-11). However, the total amount of RNA that was extracted from these samples was lower than expected. Reverse transcription is normally done using 1 μg of total RNA (determined by measurement at 260 nm).

HK-2 cells = assay: Mitochondria PCR arrays in cell model for diabetes; format: cell-based, human; conditions: HK-2(H) 22 mM glucose
Method: (§1) The HK-2 and HASMC cells are normally maintained in culture at 5.5 mM glucose, which is a concentration that corresponds to a range considered normal in human blood. However, in order to simulate a diabetic environment, both cell lines were subsequently maintained at 22 mM glucose, which corresponds to the range observed in human blood associated with chronic hyperglycemia. The cells were subsequently allowed to propagate over 3 passages so that the intracellular regulation processes were functionally adapted to mimic a diabetic state. The choice of cell line was based on the physiologic influence of diabetes on renal dysfunction and progression to end-stage renal disease (ESRD) in addition to the progressive pathophysiology of a compromised cardiovascular function.
(§2) Differential expression of mitochondrial genes in diabetes was assayed using the mitochondria arrays (Cat#PAHS 087E, SABisociences Frederick Md.).

HASMC cells = assay: Mitochondria PCR arrays in cell model for diabetes; format: cell-based, human; conditions: HASMC-(H) 22 mM glucose
Method: as §1, §2

SCC cells = conditions: 100 μM Q10; 6 and/or 24 hr
HepG2 cells = assay: Nexin assay for early and late apoptosis (flow cytometry); format: cell-based; conditions: 50 μM Q10, 24 hours
Text: (§3) The 7AAD dye will enter into cells with permeabilized cell membranes; primarily those cells that are in late apoptosis. Annexin-V-PE is a dye that binds to Phosphotidyl serine, which is exposed on the outer surface of the plasma membrane in early apoptotic cells. The Nexin reagent thus can be used to differentiate between different populations of apoptotic cells in a flow cytometer.

MCF-7 cells = assay: as above; format: cell-based; conditions: 50 μM and 100 μM Q10, 24 hours
Text: as §3

PaCa2 cells = assay: as above; format: cell-based; conditions: 50 μM and 100 μM Q10, 24 hours
Text: as §3

[2] = tested on: control and cancer cell lines; assay: Sensitivity and apoptotic response of a panel of control and cancer cell lines; format: cell-based; conditions: various levels of Coenzyme Q10
Method: In a first set of experiments, changes to cell morphology/physiology were evaluated by examining the sensitivy and apoptotic response of cells to CoQ10. […] Exemplary experiments are described in detail in Example 3 below.

Question: How did the PPARGC1A downregulation ([1]; 100 μM Q10, 16 hours) turn out when `COC1=C(OC)C(=O)C(C/C=C(\C)CC/C=C(\C)CC/C=C(\C)CC/C=C(\C)CC/C=C(\C)CC/C=C(\C)CC/C=C(\C)CC/C=C(\C)CC/C=C(\C)CCC=C(C)C)=C(C)C1=O` [Q10, Coenzyme Q10] was run?
Answer: The PPARGC1A downregulation was “approximately 20 fold”.

Question: And the PRKAA1 downregulation ([1]; 100 μM Q10, 16 hours)?
Answer: The PRKAA1 downregulation was ~6 fold.

Question: And the SNAP25 downregulation ([1]; 100 μM Q10, 16 hours)?
Answer: The SNAP25 downregulation was ~5 fold.

Question: What about the PPARGC1A regulation ([1]; 100 μM Q10, 48 hours) of the same molecule?
Answer: Its PPARGC1A regulation is “normalized or were slightly upregulated”.

Question: What about the PRKAA1 regulation ([1]; 100 μM Q10, 48 hours) of the same molecule?
Answer: Its PRKAA1 regulation is “normalized or were slightly upregulated”.

Question: What about the SNAP25 downregulation ([1]; 100 μM Q10, 48 hours) of the same molecule?
Answer: The SNAP25 downregulation was “approximately 2 fold”.

Question: And the “genes regulated in the Diabetes Arrays” value ([1]; PPARGC1A gene)?
Answer: The value was “PPARGC1A”.

Question: What about the “genes regulated in the Diabetes Arrays” value ([1]; PRKAA1 gene) of the same molecule?
Answer: Its value is “PRKAA1”.

Question: What about the “genes regulated in the Diabetes Arrays” value ([1]; SNAP25 gene) of the same molecule?
Answer: Its value is “SNAP25”.

Question: And the “GRPEL1 gene regulation (mitochondria array)” value (HK-2 cells; 50 μM Coenzyme Q10)?
Answer: Its value is −2.6512.

Question: What about the “SLC25A3 gene regulation (mitochondria array)” value (HK-2 cells; 50 μM Coenzyme Q10) of the same molecule?
Answer: The value was −8.2059.

Question: And the “TOMM40 gene regulation (mitochondria array)” value (“TOMM40 gene regulation” below) (HK-2 cells; 50 μM Coenzyme Q10)?
Answer: Its value is −1.1567.

Question: What about the “TSPO gene regulation (mitochondria array)” value (from here on “TSPO gene regulation”) (HK-2 cells; 50 μM Coenzyme Q10) of the same molecule?
Answer: Its value is −6.7583.

Question: And the “GRPEL1 gene regulation (mitochondria array)” value (HK-2 cells; 100 μM Coenzyme Q10)?
Answer: The value was −1.933.

Question: What about the “SLC25A3 gene regulation (mitochondria array)” value (HK-2 cells; 100 μM Coenzyme Q10) of the same molecule?
Answer: Its value is −1.6984.

Question: What about the “TOMM40 gene regulation” value (HK-2 cells; 100 μM Coenzyme Q10) of the same molecule?
Answer: Its value is −1.9509.

Question: What about the “TSPO gene regulation” value (HK-2 cells; 100 μM Coenzyme Q10) of the same molecule?
Answer: Its value is −2.1104.

Question: What about the “BCL2L1 gene regulation (mitochondria array)” value (HASMC cells; 50 uM Coenzyme Q10) of the same molecule?
Answer: Its value is −2.7863.

Question: What about the “MFN1 gene regulation (mitochondria array)” value (HASMC cells; 50 uM Coenzyme Q10) of the same molecule?
Answer: Its value is −1.2585.

Question: And the “PMAIP1 gene regulation (mitochondria array)” value (HASMC cells; 50 uM Coenzyme Q10)?
Answer: The value was −6.8132.

Question: What about the “SLC25A1 gene regulation (mitochondria array)” value (HASMC cells; 50 uM Coenzyme Q10) of the same molecule?
Answer: Its value is −1.834.

Question: And the “SLC25A13 gene regulation (mitochondria array)” value (HASMC cells; 50 uM Coenzyme Q10)?
Answer: Its value is −1.5.

Question: And the “SLC25A19 gene regulation (mitochondria array)” value (HASMC cells; 50 uM Coenzyme Q10)?
Answer: The value was −1.4257.

Question: And the “SLC25A22 gene regulation (mitochondria array)” value (HASMC cells; 50 uM Coenzyme Q10)?
Answer: Its value is −1.9839.

Question: What about the “TIMM44 gene regulation (mitochondria array)” value (HASMC cells; 50 uM Coenzyme Q10) of the same molecule?
Answer: Its value is −2.3214.

Question: And the “TOMM40 gene regulation” value (HASMC cells; 50 uM Coenzyme Q10)?
Answer: Its value is −2.0922.

Question: And the “TSPO gene regulation” value (HASMC cells; 50 uM Coenzyme Q10)?
Answer: The value was −2.0586.

Question: And the “BCL2L1 gene regulation (mitochondria array)” value (HASMC cells; 100 μM Coenzyme Q10)?
Answer: Its value is −2.3001.

Question: What about the “MFN1 gene regulation (mitochondria array)” value (HASMC cells; 100 μM Coenzyme Q10) of the same molecule?
Answer: Its value is −2.2632.

Question: And the “PMAIP1 gene regulation (mitochondria array)” value (HASMC cells; 100 μM Coenzyme Q10)?
Answer: Its value is −4.352.

Question: What about the “SLC25A1 gene regulation (mitochondria array)” value (HASMC cells; 100 μM Coenzyme Q10) of the same molecule?
Answer: The value was −3.0001.

Question: What about the “SLC25A13 gene regulation (mitochondria array)” value (HASMC cells; 100 μM Coenzyme Q10) of the same molecule?
Answer: Its value is −1.5245.

Question: And the “SLC25A19 gene regulation (mitochondria array)” value (HASMC cells; 100 μM Coenzyme Q10)?
Answer: The value was −2.1214.

Question: What about the “SLC25A22 gene regulation (mitochondria array)” value (HASMC cells; 100 μM Coenzyme Q10) of the same molecule?
Answer: The value was −10.3747.

Question: And the “TIMM44 gene regulation (mitochondria array)” value (HASMC cells; 100 μM Coenzyme Q10)?
Answer: Its value is −1.9931.

Question: What about the “TOMM40 gene regulation” value (HASMC cells; 100 μM Coenzyme Q10) of the same molecule?
Answer: Its value is −2.2684.

Question: What about the “TSPO gene regulation” value (HASMC cells; 100 μM Coenzyme Q10) of the same molecule?
Answer: The value was −2.3647.

Question: What about the “Response (direction of protein spot change)” value (SCC cells) of the same molecule?
Answer: Its value is “Increase; also recorded: hr, decrease”.

Question: What about the “increase of gated population in late apoptotic and early apoptotic stages” value (HepG2 cells) of the same molecule?
Answer: The value was “about 20%”.

Question: What about the apoptotic population (MCF-7 cells) of the same molecule?
Answer: Its apoptotic population is “increase only in early apoptotic population”.

Question: What about the “increase in early and late apoptotic cells” value (PaCa2 cells) of the same molecule?
Answer: The value was 5-10 % of gated cells.

Question: And the “apoptotic response of cancer vs control cell lines” value [2]?
Answer: The value was “induction of apoptosis and cell death in the cancer cells only”.
